Data reported in the supplement of paper PMC10627819.

Columns and labels:
[1] = system: S. pneumoniae D39V; test: fitness (endpoint OD595 vs no drug) (fraction); higher = more growth
How it was run: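 In 384-well plates at 37 °C, cultures began at OD595 0.01 in 30 µl, with 55 µl used for S. pneumoniae. OD595 readings every 30 min for 14 h were corrected by the first reading. Fitness divides the stationary-phase transition optical density by the robust mean of no-drug control wells. The result is capped at 1.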

[2] = system: B. subtilis 168; test: Bliss interaction score (quartile over a dose matrix) (fitness difference); higher = more antagonism (negative = synergy)
How it was run: (§1)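 The Bliss score is observed minus expected fitness, where expected fitness is the product of the single-drug fitness values inferred from the combination data. Fitness is the OD595 at the onset of stationary phase over the plate's robust no-drug mean, capped at 1. Scores are summarised by quartiles over technical, biological and donor/recipient replicates.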

[3] = system: S. pneumoniae D39V; test: as above
How it was run: as §1

[4] = system: S. aureus DSM 20231; test: as above
How it was run: as §1

[5] = system: S. aureus Newman; test: as above
How it was run: as §1
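Wherever Bliss interaction score (quartile over a dose matrix) is given: first quartile when negative (synergy) and third quartile when positive (antagonism).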
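Wherever fitness (endpoint OD595 vs no drug) is given: OD595 on entry to stationary phase over no-drug wells; at most 1.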

Clc1ccc(COC(Cn2ccnc2)c2ccc(Cl)cc2Cl)c(Cl)c1 (centres undefined) [Miconazole] + CCC(C)C1C(=O)NC(=C)C(=O)NC(C(=O)NC(CSCC(C(=O)N1)NC(=O)/C(=C/C)/NC(=O)C(C(C)CC)N)C(=O)NC2C(SCC(NC(=O)CNC(=O)C3CCCN3C2=O)C(=O)NC(CCCCN)C(=O)NC4C(SCC(NC(=O)CNC(=O)C(NC(=O)C(NC(=O)C(NC(=O)CNC4=O)C)CC(C)C)CCSC)C(=O)NC(CC(=O)N)C(=O)NC(CCSC)C(=O)NC(CCCCN)C(=O)NC5C(SCC6C(=O)NC(C(=O)NC(CSC(C(C(=O)N6)NC(=O)C(NC5=O)C)C)C(=O)NC(CO)C(=O)NC(C(C)CC)C(=O)NC(CC7=CN=CN7)C(=O)NC(C(C)C)C(=O)NC(=C)C(=O)NC(CCCCN)C(=O)O)CC8=CN=CN8)C)C)C)CC(C)C [Nisin]
fitness, [1], main component drawn
Conditions	first compound 1.073 µg/mL	first compound 1.25 µg/mL	first compound 2.145 µg/mL	first compound 2.5 µg/mL	first compound 4.29 µg/mL	first compound 5 µg/mL
partner 0.4275 µg/mL	–	0.979	–	0.998	–	0.987
partner 0.855 µg/mL	–	0.973	–	0.965	–	0.977
partner 1.6 µg/mL	0.264	–	0.16	–	0.172	–
partner 1.71 µg/mL	–	0.0702	–	0.146	–	0.119
partner 3.2 µg/mL	0.0113	–	0.0171	–	0.151	–
partner 6.4 µg/mL	0.0029	–	0.0131	–	0.168	–

main component drawn
Conditions	Bliss interaction score
[2]	0.0476
[3]	0.166
[4]	-0.0527
[5]	-0.0601

Clc1ccc(COC(Cn2ccnc2)c2ccc(Cl)cc2Cl)c(Cl)c1 (centres undefined) [Miconazole] + COc1ccc(C[C@H](N)C(=O)N[C@H]2[C@@H](O)[C@H](n3cnc4c(N(C)C)ncnc43)O[C@@H]2CO)cc1 [Puromycin]
fitness, [1]
Conditions	first compound 1.073 µg/mL	first compound 2.145 µg/mL	first compound 4.29 µg/mL
partner 1 µg/mL	0.966	≥ 1	0.968
partner 2 µg/mL	0.996	≥ 1	0.976
partner 4 µg/mL	0.879	0.903	0.846

fitness, [1], one replicate
Conditions	first compound 1.25 µg/mL	first compound 2.5 µg/mL	first compound 5 µg/mL
partner 1 µg/mL	0.884	0.91	≥ 1
partner 2 µg/mL	0.914	0.903	0.874
partner 4 µg/mL	0.742	0.717	0.809

Conditions	Bliss interaction score
[2]	0.0522
[3]	0.124
[4]	0.0532
[5]	0.0603

Clc1ccc(COC(Cn2ccnc2)c2ccc(Cl)cc2Cl)c(Cl)c1 (centres undefined) [Miconazole] + CC1=C\[C@@H](O)CC(=O)Cc2nc(co2)C(=O)N2CCC=C2C(=O)O[C@H](C(C)C)[C@H](C)/C=C/C(=O)NC\C=C\1 [Virginiamycin M1]
fitness, [1]
Conditions	first compound 1.073 µg/mL	first compound 1.25 µg/mL	first compound 2.145 µg/mL	first compound 2.5 µg/mL	first compound 4.29 µg/mL	first compound 5 µg/mL
partner 0.5 µg/mL	≥ 1	–	≥ 1	–	0.882	–
partner 1 µg/mL	≥ 1	–	≥ 1	–	≥ 1	–
partner 2 µg/mL	0.983	0.902	≥ 1	0.903	0.988	0.879

fitness, [1], one replicate
Conditions	partner 0.15 µg/mL	partner 0.3 µg/mL	partner 0.5 µg/mL	partner 1 µg/mL
first compound 1.25 µg/mL	0.949	0.905	≥ 1	≥ 1
first compound 2.5 µg/mL	0.95	0.902	≥ 1	≥ 1
first compound 5 µg/mL	0.906	0.904	0.997	0.891

Conditions	Bliss interaction score
[2]	0.103
[3]	0.0555
[4]	0.0731
[5]	0.0829

CC1=C(C(=O)O)N2C(=O)[C@@H](NC(=O)[C@H](N)c3ccccc3)[C@H]2SC1 [Cephalexin] + O=C1CN(/N=C/c2ccc([N+](=O)[O-])o2)C(=O)N1 [Nitrofurantoin]
fitness, [1], one replicate
Conditions	first compound 0.125 µg/mL	first compound 0.25 µg/mL	first compound 0.5 µg/mL	first compound 1 µg/mL	first compound 2 µg/mL	first compound 4 µg/mL
partner 2 µg/mL	0.934	0.942	0.958	–	–	–
partner 4 µg/mL	0.92	0.958	0.953	–	–	–
partner 5.14 µg/mL	–	–	–	0.716	0.243	0.0653
partner 8 µg/mL	0.756	0.775	0.805	–	–	–

fitness, [1]
Conditions	first compound 1 µg/mL	first compound 2 µg/mL	first compound 4 µg/mL
partner 1.285 µg/mL	0.762	0.226	0.0641
partner 2.57 µg/mL	0.768	0.336	0.0742

Conditions	Bliss interaction score
[2]	0.0716
[3]	0.168
[4]	0.145
[5]	0.0656
